These results are taken from patent US11834440B2, “Beta-lactam derivatives for the treatment of diseases” (Insilico Medicine IP Limited, priority 2021, dated 2023).

In this assay the target is QPCTL (Homo sapiens (Human), UniProt Q9NXS2). The assay can be described thus: QPCTL inhibition, SensoLyte Green Glutaminyl Cyclase Activity Assay. It counts as biochemical. The following applies: 0.8 nM 2x enzyme solution, 45 min at 37° C., 50 mM Tris pH 8.0, 1% DMSO.

Bounds are passed on as bounds.

Chain of QPCTL (Q9NXS2 whole entry, species assumed): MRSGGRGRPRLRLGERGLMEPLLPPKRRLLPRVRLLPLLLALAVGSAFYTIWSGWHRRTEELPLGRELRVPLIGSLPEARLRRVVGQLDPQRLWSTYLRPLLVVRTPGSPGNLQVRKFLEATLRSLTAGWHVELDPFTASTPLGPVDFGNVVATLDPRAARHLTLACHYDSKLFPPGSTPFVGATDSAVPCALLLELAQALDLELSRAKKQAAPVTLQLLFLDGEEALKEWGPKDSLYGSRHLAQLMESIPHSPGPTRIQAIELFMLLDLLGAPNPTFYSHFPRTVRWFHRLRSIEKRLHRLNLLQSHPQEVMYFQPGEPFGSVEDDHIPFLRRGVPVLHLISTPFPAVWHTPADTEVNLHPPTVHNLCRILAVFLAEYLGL

As a reminder, the IC50 is the point on the concentration scale where inhibition reaches its midpoint. Read a low IC50 as higher potency. With `O=C1[C@@H](C2CC2)[C@@H](c2c(F)cc(-c3cnccn3)cc2F)N1c1ccc2[nH]cnc2c1` [Compound 53A], the half-maximal inhibitory concentration (IC50) was over 1000 nM.
